Measured values: PMC11303713, “Allosteric inhibition of CFTR gating by CFTRinh-172 binding in the pore” (Nature Communications, 2024)
“And” between values parts separate entries of the source, which are not always exact repeats. Identical values can stand only once. Like-named read-outs stand apart in the source and are kept apart here.

Columns and labels:
[1] = Visible precipitates in perfusion solution; assay type: physicochemical
Description: Point 7 (poorly deﬁned dose-response curves): The authors response would seem to explain why points may be missing from the left side of the plot (Fig 4e), but I don't think it explains their absence from the right side. The data points for the three mutants roughly deﬁne a straight line. In order to have a meaningful ﬁt that can be used to extract a reliable IC50, one needs to sample higher and lower concentrations than the authors have done.
While I understand that there may be technical limitations that make this difficult or impossible, I think scientiﬁc rigor still has to be maintained. If the experiment cannot be done properly due to technical limitations, that is ﬁne, but low quality data should not be interpreted and presented. […]
and include in a publication. I also still think that the way the authors are reporting signiﬁcant ﬁgures this is not good practice, though this aspect is more of a stylistic/precision issue.
In Fig. 4e, we added 25 nM and 10 µM data points for WT-CFTR, and the newly added data […]
added 10 µM data point for M348K-CFTR, so that for all tested mutants, the maximum [Inh-172] is 10 µM (All related ﬁgures in the main text are updated). We could not increase [Inh-172] further because precipitates were seen gushing out of our perfusion tubing at concentrations ≥ 20 µM. […]

[2] = molecular target: T1, p-hTM8-p-CFTR (pig CFTR, three TM8 amino acids replaced with human's) (Sus scrofa, UniProt Q6PQZ2, G926T/L930M/L932F); test: Inside-out patch-clamp inhibition of CFTR current by Inh-172; assay type: cell-based
T1 construct: expressed in transfected cells; host or cells: CHO cells, pcDNA plasmid
Protocol: (§1) CHO cells were grown at 37 °C in Dulbecco’s modified Eagle’s medium supplemented with 10% (vol/vol) fetal bovine serum (Sigma-Aldrich, St. Louis, MO). pcDNA plasmids carrying the desired CFTR construct were transfected to CHO cells using PolyFect transfection reagent (Qiagen, Hilden, Germany) together with green fluorescence protein (GFP) cDNA (pEGFP-C3, Takara Bio, Shiga, Japan) that helps identify expression of CFTR. Cells were first incubated with the transfection reagents at 37 °C for 6-12 hours on sterile glass chips in 35-mm tissue culture dishes before transferred to 27 °C for incubation for 2–7 days. Primers for mutations were ordered from Integrated DNA Technologies (Coralville, IA) and were summarized in Supplementary Data. All CFTR mutants were prepared with QuikChange XL kit (Agilent, Santa Clara, CA) and sequenced at the DNA Core facility at University of Missouri-Columbia.
(§2) Patch-clamp pipettes were made from borosilicate capillary glass using a two-stage vertical puller (PP-81; Narishige, Amityville, NY). The pipette tips were fire polished with a homemade microforge to yield a pipette resistance of 2–5 MΩ when filled with a pipette solution containing (in mM): 140 NMDG-Cl (N-methyl-D-glucamine-chloride), 5 CaCl2, 2 MgCl2, and 10 HEPES, pH 7.4. For recordings, transfected cells on glass chips were transferred into a continuously perfused chamber on the stage of an inverted microscope (IX51; Olympus, Tokyo, Japan) with the perfusing solution containing (in mM): 150 NMDG-Cl, 2 MgCl2, 10 EGTA, 8 Tris, and 10 HEPES, pH 7.4. The membrane patch was excised to an inside-out configuration with a seal resistance >40 GΩ. CFTR currents were recorded with an amplifier (EPC9; HEKA, Holliston, MA), filtered through an eight-pole Bessel filter (LPF-8; Warner Instruments, Hamden, CT) at 100 Hz and digitized to a computer at a sampling rate of 500 Hz with Pulse software (version 8.53; HEKA). The membrane potential was held at −30 mV. Solution exchange was achieved by a fast solution change system (SF-77B; Warner Instruments). Inh-172 was obtained from the CFTR Chemical Compound Program supported by the Cystic Fibrosis Foundation. All experiments were performed at room temperature.
(§3) The steady state mean currents were measured in the Igor Pro software (version 8.0; WaveMetrics). The mean baseline currents were subtracted from the steady state mean currents before the data were used to determine the degrees of inhibition. The degrees of inhibition by CFTR inhibitor 172 were calculated based on the equation:1 %inhibition=1−IInh−172/I0X100% where I0 and Iinh−172 represent uninhibited and inhibited currents, respectively. The IC50 and Hill coefficients were obtained by fitting percent inhibition as a function of [Inh-172] with the Hill equation:2 %inhibition=base+(max−base)/1+xhalf/x^rate where max and base represent the […] percent inhibition by Inh-172, x represents the concentration of Inh-172, and the rate is the Hill coefficient. The estimated IC50 (xhalf) and Hill coefficients are listed in Table 1 as mean ± standard deviation. Each patch-clamp recording was made from a separate cell.

[3] = molecular target: T2, p-hTMD1-p-CFTR (pig CFTR with human CFTR's TMD1) (Sus scrofa, UniProt Q6PQZ2, A115E/A228G/F12V/H39Q/I11V/I421T/I87F/K242R/K407E/L215I/L315F/L328I/M332I/N256S/N426D/P145L/S418N/S41P/S43V/S445N/T209A/V125I/V231I); test: as above; assay type: cell-based
T2 construct: expressed in transfected cells; host or cells: CHO cells, pcDNA plasmid
Protocol: as §1, §2, §3

[4] = 100 nM Inh-172, read-out: percent inhibition of current, Mean
[5] = 500 nM Inh-172, read-out: percent inhibition of current, Mean
[6] = 1000 nM Inh-172, read-out: percent inhibition of current, Mean
[7] = 1000 nM Inh-172, read-out: percent inhibition of current, individual cell
[8] = 10000 nM Inh-172, read-out: percent inhibition of current, Mean
[9] = 10000 nM Inh-172, read-out: percent inhibition of current, individual cell

T2 sequence (Q6PQZ2 1-1482 with the stated changes): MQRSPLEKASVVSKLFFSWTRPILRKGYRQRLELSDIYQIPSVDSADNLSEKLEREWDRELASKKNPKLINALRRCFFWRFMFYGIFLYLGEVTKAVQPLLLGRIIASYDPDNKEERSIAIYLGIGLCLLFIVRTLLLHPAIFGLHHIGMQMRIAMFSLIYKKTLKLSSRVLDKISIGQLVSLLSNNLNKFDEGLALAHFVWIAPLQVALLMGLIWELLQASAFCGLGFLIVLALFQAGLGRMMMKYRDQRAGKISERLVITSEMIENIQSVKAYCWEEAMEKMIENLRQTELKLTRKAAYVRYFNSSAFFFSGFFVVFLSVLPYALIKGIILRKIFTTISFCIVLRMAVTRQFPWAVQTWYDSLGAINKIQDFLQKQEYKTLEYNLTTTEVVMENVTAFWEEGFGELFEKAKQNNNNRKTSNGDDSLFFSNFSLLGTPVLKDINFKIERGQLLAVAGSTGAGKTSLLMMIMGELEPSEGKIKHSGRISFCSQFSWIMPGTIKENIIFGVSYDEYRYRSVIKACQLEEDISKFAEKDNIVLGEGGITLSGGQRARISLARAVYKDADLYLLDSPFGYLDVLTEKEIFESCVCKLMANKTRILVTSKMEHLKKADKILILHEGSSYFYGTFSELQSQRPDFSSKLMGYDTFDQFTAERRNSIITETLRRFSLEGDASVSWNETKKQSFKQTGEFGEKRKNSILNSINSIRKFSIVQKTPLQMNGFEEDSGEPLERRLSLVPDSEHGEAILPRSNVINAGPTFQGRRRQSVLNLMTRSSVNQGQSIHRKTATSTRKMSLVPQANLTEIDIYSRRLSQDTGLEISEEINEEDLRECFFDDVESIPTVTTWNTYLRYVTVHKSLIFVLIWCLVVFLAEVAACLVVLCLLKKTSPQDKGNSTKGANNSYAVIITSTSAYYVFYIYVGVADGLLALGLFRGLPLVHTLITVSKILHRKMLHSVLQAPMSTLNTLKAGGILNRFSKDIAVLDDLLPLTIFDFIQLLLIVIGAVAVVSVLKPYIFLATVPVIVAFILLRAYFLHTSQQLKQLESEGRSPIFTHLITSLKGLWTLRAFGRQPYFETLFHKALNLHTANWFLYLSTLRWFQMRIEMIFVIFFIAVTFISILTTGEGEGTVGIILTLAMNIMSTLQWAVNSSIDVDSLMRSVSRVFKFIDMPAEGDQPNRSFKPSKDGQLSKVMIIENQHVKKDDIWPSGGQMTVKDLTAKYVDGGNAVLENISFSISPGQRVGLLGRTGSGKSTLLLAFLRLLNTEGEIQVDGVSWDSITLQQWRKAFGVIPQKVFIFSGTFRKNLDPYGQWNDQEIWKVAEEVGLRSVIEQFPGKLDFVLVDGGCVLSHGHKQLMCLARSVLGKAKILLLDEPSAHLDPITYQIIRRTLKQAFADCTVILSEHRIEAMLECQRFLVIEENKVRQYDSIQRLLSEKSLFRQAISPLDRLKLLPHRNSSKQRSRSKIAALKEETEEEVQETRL
T1 sequence (Q6PQZ2 whole entry G926T/L930M/L932F): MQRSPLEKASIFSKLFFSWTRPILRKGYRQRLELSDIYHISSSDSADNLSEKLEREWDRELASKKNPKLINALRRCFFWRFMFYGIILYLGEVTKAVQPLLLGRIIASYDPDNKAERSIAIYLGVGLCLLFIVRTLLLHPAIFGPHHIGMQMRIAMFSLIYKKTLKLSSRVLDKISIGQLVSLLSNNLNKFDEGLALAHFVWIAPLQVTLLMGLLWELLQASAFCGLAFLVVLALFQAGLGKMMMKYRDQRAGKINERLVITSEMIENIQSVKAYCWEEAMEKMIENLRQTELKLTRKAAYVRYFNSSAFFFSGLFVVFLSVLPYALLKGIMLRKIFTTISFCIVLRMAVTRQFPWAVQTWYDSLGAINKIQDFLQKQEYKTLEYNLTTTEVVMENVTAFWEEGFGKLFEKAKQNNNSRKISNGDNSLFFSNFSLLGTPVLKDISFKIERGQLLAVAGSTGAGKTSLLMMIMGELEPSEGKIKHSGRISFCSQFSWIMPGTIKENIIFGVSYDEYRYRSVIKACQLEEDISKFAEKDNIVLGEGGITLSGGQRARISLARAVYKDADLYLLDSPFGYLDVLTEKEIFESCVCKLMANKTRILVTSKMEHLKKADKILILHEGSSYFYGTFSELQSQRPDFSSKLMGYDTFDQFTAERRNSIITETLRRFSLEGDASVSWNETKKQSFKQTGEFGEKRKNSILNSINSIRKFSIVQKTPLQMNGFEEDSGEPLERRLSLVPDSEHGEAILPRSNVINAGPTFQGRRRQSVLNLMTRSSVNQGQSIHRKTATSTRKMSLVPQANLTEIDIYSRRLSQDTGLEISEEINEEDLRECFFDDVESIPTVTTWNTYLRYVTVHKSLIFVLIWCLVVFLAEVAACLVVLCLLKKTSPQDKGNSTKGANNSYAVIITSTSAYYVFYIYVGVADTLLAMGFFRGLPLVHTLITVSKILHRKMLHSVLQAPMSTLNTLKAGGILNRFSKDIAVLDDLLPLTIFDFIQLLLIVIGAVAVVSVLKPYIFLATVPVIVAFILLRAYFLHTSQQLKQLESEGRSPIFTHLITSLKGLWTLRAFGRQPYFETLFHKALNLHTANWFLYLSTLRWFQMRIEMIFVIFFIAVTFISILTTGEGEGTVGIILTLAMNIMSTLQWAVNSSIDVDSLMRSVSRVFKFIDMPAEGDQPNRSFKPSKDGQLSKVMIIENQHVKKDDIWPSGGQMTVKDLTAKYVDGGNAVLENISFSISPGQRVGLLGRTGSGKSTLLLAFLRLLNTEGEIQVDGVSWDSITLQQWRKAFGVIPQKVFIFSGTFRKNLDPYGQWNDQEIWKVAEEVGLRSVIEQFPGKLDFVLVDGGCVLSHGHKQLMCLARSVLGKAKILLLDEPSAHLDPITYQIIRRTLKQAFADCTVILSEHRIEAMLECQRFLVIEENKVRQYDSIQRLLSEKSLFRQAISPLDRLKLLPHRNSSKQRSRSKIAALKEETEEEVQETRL

O=C(O)c1ccc(/C=C2\SC(=S)N(c3cccc(C(F)(F)F)c3)C2=O)cc1 [Inh-172, CFTRinh-172]
concentration at which precipitates were seen [1]: ≥ 20 µM
percent inhibition of current, individual cell ([2]; 25 nM Inh-172): 0 and 3
inhibition at 0.025 µM ([2]; 25 nM Inh-172, read-out: percent inhibition of current, Mean): 1%
percent inhibition of current, individual cell ([2]; 100 nM Inh-172): 18 and 20 and 14 and 17
inhibition at 0.1 µM [2, 4]: 16.4%
inhibition at 0.1 µM ([2]; 100 nM Inh-172, read-out: percent inhibition of current, individual cell): 13%
percent inhibition of current, individual cell ([2]; 500 nM Inh-172): 63 and 60 and 56 and 33 and 23
inhibition at 0.5 µM [2, 5]: 47%
percent inhibition of current, individual cell ([2]; 1000 nM Inh-172): 53 and 44 and 63
inhibition at 1 µM [2, 6]: 54%
inhibition at 1 µM [2, 7]: 57%
percent inhibition of current, individual cell ([2]; 10000 nM Inh-172): 82 and 85
inhibition at 10 µM [2, 8]: 89%
inhibition at 10 µM [2, 9]: 100%
Hill Coefficient ([2]; p-hTM8-p): 0.84 ± 0.10
IC50 ([2]; p-hTM8-p): 720 ± 90 nM
percent inhibition of current, individual cell ([3]; 100 nM Inh-172): 4 and 3 and 1
inhibition at 0.1 µM [3, 4]: 2.7%
percent inhibition of current, individual cell ([3]; 500 nM Inh-172): 17 and 15
inhibition at 0.5 µM [3, 5]: 17.3%
inhibition at 0.5 µM ([3]; 500 nM Inh-172, read-out: percent inhibition of current, individual cell): 20%
percent inhibition of current, individual cell ([3]; 1000 nM Inh-172): 30 and 24
inhibition at 1 µM [3, 6]: 32%
inhibition at 1 µM [3, 7]: 42%
percent inhibition of current, individual cell ([3]; 5000 nM Inh-172): 67 and 68
inhibition at 5 µM ([3]; 5000 nM Inh-172, read-out: percent inhibition of current, Mean): 68.7%
inhibition at 5 µM ([3]; 5000 nM Inh-172, read-out: percent inhibition of current, individual cell): 71%
percent inhibition of current, individual cell ([3]; 10000 nM Inh-172): 83 and 81
inhibition at 10 µM [3, 8]: 83.3%
inhibition at 10 µM [3, 9]: 86%
Hill Coefficient ([3]; p-hTMD1-p): 1.03 ± 0.03
IC50 ([3]; p-hTMD1-p): 2210 ± 70 nM
